“Also recorded” adds a separate entry of the source.
Key:
[1] = system: CD51/61 on RAW264.7 cells; assay: Osteoclast-specific marker CD51/61 by flow cytometry; conditions: RAW264.7, M-CSF/RANKL; 5 nM MPT0G009 or 50 nM SAHA
Method: Subsequently, multinucleate tartrate-resistant acid phosphatase (TRAP)-positive cells were counted.
Cells were then TRAP stained, and the numbers of TRAP-positive multinuclear cells were counted. […] Images are at × 100 magnification, and the arrows indicate differentiated osteoclasts.
Cells were then TRAP stained, and the numbers of TRAP-positive multinuclear cells were counted (d) or were incubated with a FITC-conjugated anti-CD51/61 antibody and analyzed by flow cytometry (e).
After three washes with FACS washing buffer, the fluorescence of the cells was analyzed on a FACScan flow cytometer (BD Biosciences).

recombinant HDAC6 = biological target: T1, recombinant HDAC6 (Homo sapiens, UniProt Q9UBN7); assay: Fluorogenic assay kit, recombinant HDAC6 enzyme activity; type: biochemical; conditions: mean±S.E.M., three replicate experiments; read-out: IC50 (nM) of HDAC isoforms enzyme, HDAC6
T1 construct: purchased BPS Bioscience Corp. (San Diego, CA, USA)
T1 sequence (Q9UBN7 whole entry, canonical isoform): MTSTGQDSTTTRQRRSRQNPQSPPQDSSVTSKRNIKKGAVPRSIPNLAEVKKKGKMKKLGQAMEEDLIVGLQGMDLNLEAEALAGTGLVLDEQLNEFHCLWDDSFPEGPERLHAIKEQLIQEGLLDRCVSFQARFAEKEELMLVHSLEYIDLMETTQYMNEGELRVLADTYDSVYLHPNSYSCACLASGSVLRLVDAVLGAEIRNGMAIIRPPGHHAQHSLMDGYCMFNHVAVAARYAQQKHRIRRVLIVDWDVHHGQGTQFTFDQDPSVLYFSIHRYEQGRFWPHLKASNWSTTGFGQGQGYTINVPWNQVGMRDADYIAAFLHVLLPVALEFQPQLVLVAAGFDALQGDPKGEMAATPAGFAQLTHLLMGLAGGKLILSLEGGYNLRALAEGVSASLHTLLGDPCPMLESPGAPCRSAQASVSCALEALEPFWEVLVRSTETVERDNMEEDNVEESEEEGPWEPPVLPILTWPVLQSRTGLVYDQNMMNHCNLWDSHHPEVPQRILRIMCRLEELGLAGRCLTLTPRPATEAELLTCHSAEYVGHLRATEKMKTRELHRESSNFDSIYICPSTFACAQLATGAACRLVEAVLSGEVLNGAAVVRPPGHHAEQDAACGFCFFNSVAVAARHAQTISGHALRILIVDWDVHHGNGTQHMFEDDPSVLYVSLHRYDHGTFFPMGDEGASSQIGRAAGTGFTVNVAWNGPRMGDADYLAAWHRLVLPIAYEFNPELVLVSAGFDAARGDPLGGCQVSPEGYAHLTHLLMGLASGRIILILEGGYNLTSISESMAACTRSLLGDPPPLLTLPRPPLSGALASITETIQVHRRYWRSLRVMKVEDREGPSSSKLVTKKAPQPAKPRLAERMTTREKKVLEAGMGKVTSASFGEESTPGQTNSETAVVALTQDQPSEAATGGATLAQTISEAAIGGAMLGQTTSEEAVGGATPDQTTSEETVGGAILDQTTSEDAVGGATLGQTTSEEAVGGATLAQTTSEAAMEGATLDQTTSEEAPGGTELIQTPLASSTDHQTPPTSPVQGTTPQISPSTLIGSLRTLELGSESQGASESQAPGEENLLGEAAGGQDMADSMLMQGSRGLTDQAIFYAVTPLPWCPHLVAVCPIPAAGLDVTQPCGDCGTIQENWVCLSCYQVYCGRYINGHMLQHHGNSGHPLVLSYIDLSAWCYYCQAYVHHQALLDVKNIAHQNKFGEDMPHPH
Source text: (§1) Using kits that contained different recombinant HDAC isoforms, we evaluated the ability of MPT0G009 to inhibit HDAC-mediated deacetylation of lysine residues on the substrates that were provided. […] Fluorogenic HDAC assay kits were used to assess the ability of HDAC inhibitors to inhibit deacetylation of lysine residues on the substrate by recombinant HDAC1, 2, 3, 4, 6 or 8 according to the manufacturer's instructions.

CD-1 mice = assay: Determination of the MTD in CD-1 mice; type: in vivo; conditions: for Lethality (%): qd × 7; for Change of body weight (%) Day 7 / Change of body weight (%) Day 14 / Change of body weight (%) Day 21: qd × 7, mean±S.E.M.
Method: The MTD was determined using CD-1 mice at 8–10 weeks of age by dose ranging from 250 to 1000 mg/kg orally once a day for 1 week and then monitored for another 2 weeks. Each dose was tested on six mice in individual independent experiments. MTD was defined as the highest dose that could be given resulting in no drug-related moribund state or death, while temporary body weight loss was within 20%.

RA-FLS = assay: Cell cycle distribution by propidium iodide flow cytometry; type: cell-based, human; conditions: RA-FLS 24 h, MPT0G009 1–1000 nM, SAHA 3–3000 nM
recombinant HDAC8 = biological target: T2, recombinant HDAC8 (Homo sapiens, UniProt Q9BY41); assay: Fluorogenic assay kit, recombinant HDAC8 enzyme activity; type: biochemical; conditions: mean±S.E.M., three replicate experiments; read-out: IC50 (nM) of HDAC isoforms enzyme, DHAC8
T2 construct: purchased BPS Bioscience Corp. (San Diego, CA, USA)
T2 sequence (Q9BY41 whole entry, canonical isoform): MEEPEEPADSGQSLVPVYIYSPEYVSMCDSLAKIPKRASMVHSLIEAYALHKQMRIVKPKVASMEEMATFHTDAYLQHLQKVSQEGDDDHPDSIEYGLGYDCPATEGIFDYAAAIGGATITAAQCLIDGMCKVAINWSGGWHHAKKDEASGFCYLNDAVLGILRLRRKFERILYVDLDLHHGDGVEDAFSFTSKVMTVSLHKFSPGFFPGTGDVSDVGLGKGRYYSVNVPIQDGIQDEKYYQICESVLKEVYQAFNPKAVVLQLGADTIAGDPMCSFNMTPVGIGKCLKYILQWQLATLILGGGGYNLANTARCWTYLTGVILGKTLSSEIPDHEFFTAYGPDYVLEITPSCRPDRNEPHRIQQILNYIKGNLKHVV
Source text: as §1

recombinant HDAC2 = biological target: T3, recombinant HDAC2 (Homo sapiens, UniProt Q92769); assay: Fluorogenic assay kit, recombinant HDAC2 enzyme activity; type: biochemical; conditions: mean±S.E.M., three replicate experiments; read-out: IC50 (nM) of HDAC isoforms enzyme, HDAC2
T3 construct: purchased BPS Bioscience Corp. (San Diego, CA, USA)
T3 sequence (Q92769 whole entry, canonical isoform): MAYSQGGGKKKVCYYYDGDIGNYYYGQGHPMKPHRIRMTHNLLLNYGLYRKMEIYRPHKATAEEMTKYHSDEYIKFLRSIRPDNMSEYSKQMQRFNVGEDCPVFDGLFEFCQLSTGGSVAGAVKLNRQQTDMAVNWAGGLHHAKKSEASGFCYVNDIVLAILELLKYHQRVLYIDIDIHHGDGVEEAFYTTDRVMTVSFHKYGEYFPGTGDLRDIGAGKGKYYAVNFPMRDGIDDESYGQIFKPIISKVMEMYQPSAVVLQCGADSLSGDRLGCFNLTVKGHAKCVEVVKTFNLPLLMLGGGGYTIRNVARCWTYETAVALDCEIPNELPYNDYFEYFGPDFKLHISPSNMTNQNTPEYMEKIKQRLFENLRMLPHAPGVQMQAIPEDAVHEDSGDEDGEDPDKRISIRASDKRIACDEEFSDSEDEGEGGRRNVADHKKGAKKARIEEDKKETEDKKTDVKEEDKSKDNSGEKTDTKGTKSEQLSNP
Source text: as §1

NF-κB in RAW264.7 cells = assay: NF-κB luciferase reporter gene assay, RANKL-induced; type: cell-based, mouse; conditions: RAW264.7, 5 nM, RANKL 50 ng/ml 24 h
Method: We also assessed the effect of MTP0G009 on the DNA-binding activity of NF-κB and NFATc1, two pivotal transcriptional factors involved in RANKL-induced pathways for promoting osteoclast differentiation.[14], [15] When RAW264.7 cells that had been transiently transfected with reporter plasmids were treated with 5 nM MPT0G009 for 30 min before and during 24-h stimulation with RANKL, MPT0G009 inhibited RANKL-induced NF-κB (Figure 3d) and NFATc1 (Figure 3e) luciferase activity.
RAW264.7 cells or RA-FLSs were seeded 1 day before transfection. […] For the reporter gene assay, 100 μl of reporter lysis buffer (Promega Corp.) was added, then the cells were scraped off the dishes, centrifuged at 17 000 g for 30 s at 4 °C and the supernatants collected. Aliquots of cell lysates (20 μl) were placed in the wells of an opaque black 96-well microtiter plate, then 40 μl of luciferase substrate (Promega Corp.) was added and the luminescence immediately measured in a microplate luminometer (Beckman Coulter, Krefeld, Germany).

rat AIA model = assay: In vivo adjuvant-induced arthritis (AIA) model
Method: Next, we evaluated the in vivo anti-arthritic effects of MPT0G009 in a rat AIA model. […] The inhibition of synoviocytes proliferation and inflammation by MPT0G009 treatment was also observed (Supplementary Figure 1).
Figure 5 MPT0G009 inhibits the development of arthritis in an AIA model. […] Subsequently, swelling of both hind paws was photographed. (b) Hind paw volumes in the indicated group of rats were measured using a digital plethysmometer on the indicated day after AIA induction. (c) Arthritis scores on day 21. (d) Serum levels of interleukin (IL)-1β (left panel) and IL-6 (right panel) on day 21 as measured by enzyme-linked immunosorbent assay (ELISA). (e) Top five rows: photomicrographs of ankle joint sections from the different groups stained with hematoxylin and eosin, safranin O, immunohistochemically stained with an anti-acetyl H3 antibody or TRAP stain. Arrows indicate osteoblasts (OB); arrowheads indicate osteoclasts (OC). Bottom panels: micro-CT results (arrows indicate bone erosion). (f) The BMD (in mg/mm^3) and the BMC (in mg) values for the bone tissue of the tarsus were analyzed using CT Analysis Software.
Five-week-old male Lewis rats were obtained from the National Laboratory Animal Center (Taipei, Taiwan). Complete Freund's adjuvant (CFA) was prepared by suspending heat-killed Mycobacterium butyricum (Difco, Sparks, MD, USA) in mineral oil at 3 mg/ml. CFA-induced arthritis was induced by intradermal injection of 100 μl of the CFA emulsion into the base of the right hind paw on day 0. […] On days 0, 2, 6, 9, 13, 17 and 21, the animals were weighed and both hind paw volumes measured using a digital plethysmometer (Diagnostic & Research Instruments Co. Ltd, Taipei, Taiwan). On day 21, micro-CT of the paws was performed by the Core Facilities Center of the National Research Program for Biopharmaceuticals using an in vivo micro-CT scanner (Skyscan 1176, Bruker Corp., Kontich, Belgium) at 18 μm resolution and 180° scanning with a rotation step of 0.8° per image, 300 ms integration time, 70 keV photon energy and 350 μA current. The reconstructed volumes from micro-CT scans were analyzed by CT Analysis Software (CTAn, Bruker Corp.). Quantification of volumetric BMD and bone volume (BV) was performed in a defined bone area ranging 12 mm from tarsals to the end of the calcaneus. The BMC was described by the product of BV and BMD. On day 21, the rats were killed and specimens from the phalanges and ankle joints stained with hematoxylin–eosin or safranin O for histopathological assessment by the National Laboratory Animal Center. Intensity of arthritis was scored as described previously from 0 to 4.[19] All four legs were scored, so the highest possible arthritic score was 16.

[2] = day 21, ELISA, MPT0G009 25 mg/kg, SAHA 200 mg/kg, indomethacin 1 mg/kg
[3] = oral daily days 2 to 21, MPT0G009 25 mg/kg, SAHA 200 mg/kg, indomethacin 1 mg/kg, vs vehicle

## COc1ccc(S(=O)(=O)N2CCc3cc(C=CC(=O)NO)ccc32)cc1 [MPT0G009, 3-[1-(4-methoxybenzenesulfonyl)-2,3-dihydro-1H-indol-5-yl]-N-hydroxyacrylamide]
[1]
  expression of the osteoclast-specific marker (CD51/61): significantly inhibited
Recombinant HDAC6
  IC50: 8.43 ± 0.72 nM
CD-1 mice; 250 mg/kg p.o.
  Lethality (%): 0%
  Change of body weight (%) Day 7: +8.7±0.5%
  Change of body weight (%) Day 14: +17.0±0.4%
  Change of body weight (%) Day 21: +22.6±0.6%
CD-1 mice; 500 mg/kg p.o.
  Lethality (%): 0%
  Change of body weight (%) Day 7: +1.6±0.3%
  Change of body weight (%) Day 14: +16.5±0.6%
  Change of body weight (%) Day 21: +24.0±0.9%
CD-1 mice; 1000 mg/kg p.o.
  Lethality (%): 0%
  Change of body weight (%) Day 7: +4.4±0.6%
  Change of body weight (%) Day 14: +12.0±0.7%
  Change of body weight (%) Day 21: +15.3±0.8%
CD-1 mice; up to 1000 mg/kg/day, daily × 7, within 3 weeks
  adverse effects / tolerability: No significant adverse effects; also recorded: well tolerated and safe
RA-FLS
  subG1 peak (cellular apoptosis): did not increase the subG1 peak
RA-FLS; all concentrations
  cell cycle arrest: G0/G1 phase arrest
Recombinant HDAC8
  IC50: 22.5 ± 2.16 nM
Recombinant HDAC2
  IC50: 5.16 ± 0.76 nM
NF-κB in RAW264.7 cells
  RANKL-induced NF-κB luciferase activity: inhibited
Rat AIA model; 25 mg/kg
  cartilage degradation (safranin O staining of ankle joints): markedly reduced
  formation of osteoclasts (TRAP stain): significantly decreased
  leukocyte infiltration, synovitis (hematoxylin and eosin staining): significantly reduced
  levels of acetyl-histone H3 (immunohistochemical staining): increased levels
Rat AIA model; 25 mg/kg, day 21
  bone destruction (micro-CT): ameliorated
Rat AIA model; 25 mg/kg, tarsus, micro-CT
  bone mineral content (BMC): prevented the decrease
  bone mineral density (BMD): prevented the decrease
Rat AIA model; [2]
  serum levels of IL-1β: significant decreases
  serum levels of IL-6: significant decreases
Rat AIA model; day 21, MPT0G009 25 mg/kg, SAHA 200 mg/kg, indomethacin 1 mg/kg, vs vehicle
  arthritis scores: significant reductions
Rat AIA model; [3]
  paw swelling: significant reductions
  paw volume: significant reductions
